Usually GI50 stands for the concentration giving 50% growth inhibition. By TGI is commonly meant the concentration giving total growth inhibition. A higher TGI goes with lower sensitivity of the cells.

We go through nine compounds from PubChem BioAssay (NCI).

What all share (experiment): DTP human tumour cell line panel, 48 h
The subject of test [1] is HOP-62 NSCLC.
In test [2] the test system is SF-539 CNS.
Test [3] deals with MDA-MB-231 breast.
For test [4], the system named is SK-MEL-5 melanoma.
The subject of test [5] is UACC-62 melanoma.
Test [6] has as its system UO-31 renal.
Test [7] has as its system DU-145 prostate.
Test [8] concerns KM12 colon.

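Step 1: Grow cells in 96-well plates. Step 2: Expose to compound for 48 hours at 5 concentrations. Step 3: Interpolate endpoints linearly; if unreached, use highest concentration. GI50: concentration for 50% inhibition of growth. TGI: concentration producing complete growth inhibition.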

Regarding `Oc1cc(Cl)ccc1Cc1ccc(Cl)cc1O`, the GI50 was 11.7 µM in test [1]; 11.4 µM in test [2]; 11.6 µM in test [3]; 4.48 µM in test [4]; 4.9 µM in test [5]; 4.89 µM in test [6]. For the same compound, the figures for the GI50 in test [7] and in test [8] were 10.4 µM and 14.8 µM, respectively. In addition, the total growth inhibition concentration (TGI) stood at 31.7 µM in test [1]; 25.4 µM in test [2]; 36.3 µM in test [3]; 15.8 µM in test [4]; 16.3 µM in test [5]; 20.1 µM in test [6]. In addition, the values for the TGI in test [7] and in test [8] were 23.2 µM and 28.1 µM, respectively.
Take `CCC(=O)c1ccc2c(c1)N(CCCN1CCN(CCO)CC1)c1ccccc1S2`: the GI50 in test [1] was 16.2 µM; in test [2] it was 12.2 µM; in test [3], 13.1 µM; in test [4], 8.65 µM; in test [5], 2.2 µM; in test [6], 7.82 µM. Besides, the GI50 was 15.4 µM in test [7] and 14.9 µM in test [8]. Besides, the TGI in test [1] was found to be 30.3 µM; in test [2], 27 µM; in test [3], 27.4 µM; in test [4] it was 21.1 µM; in test [5], 4.73 µM; in test [6], 21.6 µM. Besides, the TGI in test [7] came out at 28.9 µM; in test [8], 28.7 µM.
Turning to `CO/C(=N\N=C\c1cccc(C(F)(F)F)c1)c1ccncc1`, the GI50 is 13.2 µM in test [1], 10.8 µM in test [3], 6.09 µM in test [6] and 33.6 µM in test [7]. Also, the total growth inhibition concentration (TGI) in test [1] is more than 100 µM; in test [2], 37.1 µM; in test [3], more than 100 µM; in test [4] it was 32.4 µM; in test [5] it was more than 100 µM; in test [6], 40.8 µM. Moreover, the TGI in test [7] and in test [8] was more than 100 µM throughout.
As to `COc1cc(-c2n/c(=C\c3c(O)[nH]c4ccccc34)cc3c2=Nc2ccccc2-3)cc(OC)c1OC`, the GI50 in test [1] was 0.536 µM; in test [2], 0.783 µM; in test [3] it was 2.11 µM; in test [4], 0.289 µM; in test [5] it was 0.707 µM; in test [6] it was 2.5 µM. Further, the GI50 in test [7] was 1.12 µM; in test [8] it was 2.03 µM. The TGI is more than 100 µM in test [1]; 7.83 µM in test [2]; more than 28.2 µM in test [3]; 2.88 µM in test [4]; more than 100 µM in test [5]; more than 100 µM in test [6]. Further, the TGI in test [7] was more than 100 µM; in test [8] it was 16.4 µM.
As for `O=[N+]([O-])/C=C/c1ccc([N+](=O)[O-])cc1`, the GI50 was 10.9 µM in test [1]; 2.46 µM in test [2]; 2.71 µM in test [3]; 1.76 µM in test [4]; 2.09 µM in test [5]; 1.83 µM in test [6]. Further, the GI50 in test [7] was 1.96 µM; in test [8], 2.25 µM. For the same compound, the TGI in test [1] was 23.7 µM; in test [2], 4.89 µM; in test [3] it was 8.73 µM; in test [4] it was 4.51 µM; in test [5], 6.15 µM; in test [6], 3.69 µM. The concentration for total growth inhibition (TGI) in test [7] came out at 3.77 µM; in test [8] it was 4.71 µM.
For the compound `COc1cc2c3c(n(C)c(=O)c2cc1OC)-c1cc2c(cc1/C3=C/[C@H](N)CCCCN)OCO2`, the GI50 in test [1] was 1.34 µM; in test [2] it was 0.742 µM; in test [3], 0.941 µM; in test [4], 1.49 µM; in test [5], 1.28 µM; in test [6] it was 3.14 µM. The GI50 in test [7] was 1.07 µM; in test [8], 2.07 µM. The TGI in test [1] stood at 11.6 µM; in test [2], 4.62 µM; in test [3], 6.22 µM; in test [4], 7.64 µM; in test [5], 6.33 µM; in test [6], 23 µM. Also, the TGI in test [7] is 50 µM; in test [8], more than 58.5 µM.
For the compound `COc1cc2c3c(n(CCCNCCNCCCN)c(=O)c2cc1OC)-c1cc2c(cc1C3=O)OCO2`, the GI50 in test [1] was 2.88 µM; in test [2] it was 8.55 µM; in test [3], 1.19 µM; in test [4], 6.41 µM; in test [5] it was 1.87 µM; in test [6] it was 5.67 µM. Further, the GI50 is 4.6 µM in test [7] and 2.61 µM in test [8]. In addition, the TGI is 15.6 µM in test [1]; 23.6 µM in test [2]; 3.59 µM in test [3]; 20.3 µM in test [4]; 8.18 µM in test [5]; 23.6 µM in test [6]. Further, the TGI in test [7] stood at 17 µM; in test [8], 14.5 µM.
In the case of `Oc1ccc(CN(Cc2ccc(C(F)(F)F)cc2)Cc2ccc(O)c3ncccc23)c2cccnc12`, the GI50 in test [1] was 0.0319 µM; in test [2], 0.0465 µM; in test [3] it was 0.0566 µM; in test [4], 0.0278 µM; in test [5], 0.0395 µM; in test [6] it was 0.0279 µM. Moreover, the concentration for 50% growth inhibition (GI50) is 0.0338 µM in test [7] and 0.0415 µM in test [8]. Moreover, the TGI in test [1] was more than 34.6 µM; in test [2], more than 64.1 µM; in test [3] it was more than 100 µM; in test [4], 0.16 µM; in test [5], 0.927 µM; in test [6], 2.19 µM. In addition, the TGI in test [7] and in test [8] was more than 100 µM throughout.
As to `CC1(C)Cc2c(Br)c(Br)c(Br)c(OCC(O)CN3CCOCC3)c2O1` (stereo not given), the GI50 was 12.2 µM in test [1]; 12.5 µM in test [2]; 10.1 µM in test [3]; 10.2 µM in test [4]; 13.8 µM in test [5]; 12.8 µM in test [6]. For the same compound, the GI50 in test [7] and in test [8] was 13.4 µM each time. Moreover, the total growth inhibition concentration (TGI) stood at 27.3 µM in test [1]; 26 µM in test [2]; 22.5 µM in test [3]; 22 µM in test [4]; 27.5 µM in test [5]; 27.4 µM in test [6]. Moreover, the TGI in test [7] stood at 26.2 µM; in test [8], 28.9 µM.
